Experimental data from PMC8174488, “4-Arylthiosemicarbazide derivatives as a new class of tyrosinase inhibitors and anti-Toxoplasma gondii agents” (Journal of Enzyme Inhibition and Medicinal Chemistry, 2021).
“And” between values parts separate entries of the source, which are not always exact repeats. Equal entries are not always repeated. Where two headings read alike, the source gives them in different places.

How the values were obtained:
T. gondii RH strain [1] = assay: Antiparasitic assay: T. gondii RH proliferation in Hs27 cells, [3H]uracil incorporation; assay type: cell-based, Toxoplasma gondii; settings: for IC50: Toxoplasma gondii, HS27; for SR (selectivity ratio): ratio of CC30 (L929) to IC50Tg
L929 cells [2] = assay: Cell viability assay (MTT, ISO 10993-5) on L929 mouse fibroblasts; assay type: cell-based; settings: 24 h, concentration for 30% inhibition of cell proliferation
Description: First, we evaluated the cytotoxic effects of 1b–9b, which is necessary prior to measuring anti-Toxoplasma and Tyr inhibition in order to exclude cytotoxic compounds. […] Cytotoxicity was estimated using mouse fibroblast (L929) cells line via MTT assay, according to the international standards ISO 10993–5:2009(E). […] Therefore, the obtained results were expressed as CC30, which was defined as the highest concentration of the compound that causes 30% damage of cells and was considered according to ISO as non-toxic.
The L929 mouse fibroblast (ATTC® CCL-1™, Manassas, VA) was routinely maintained in RPMI 1640 media (R8758, Sigma-Aldrich, Suffolk, UK), supplemented with 10% foetal bovine serum (Foetal Bovine Serum, ATCC® 30–2020™), 100 I.U./mL penicillin and 100 µg/mL streptomycin (Penicillin-Streptomycin Solution ATCC® 30–2300™). Cells were trypsinised (Trypsin-EDTA Solution, 1X ATCC® 30–2101™) twice a week and seeded at a density of 1 × 10^6 per T25 cell culture flask and incubated at 37 °C and 10% CO2 to achieve a confluent monolayer.
(§1) Cell viability assay was performed according to international standards (ISO 10993–5:2009(E)), using tetrazolium salt (MTT, Sigma-Aldrich) and mouse fibroblasts L929 cells. Culture medium RPMI 1640, without phenol red (Biowest, Nuaille, France) supplemented with 10% FBS, 2 mM L-glutamine (Sigma-Aldrich), 100 I.U./mL penicillin, 100 µg/mL streptomycin were used. Briefly, 1 × 10^4/well of L929 cells were placed in 96-well plates and incubated for 24 h at 37 °C and 10% CO2. Afterwards, the old culture medium was replaced with 100 µL of the compound, drug or inhibitor, diluted in culture medium, and the cells treated for 24 h. Additionally, cells were treated with 0.03–4.0% concentration of DMSO as the solvent (data not shown). Then, 50 µL of 1 mg/mL of MTT solution in RPMI 1640 without phenol red was added to each well and incubated for 2 h at 37 °C and 10% CO2. Next, cell culture medium was aspirated carefully and 150 µL of DMSO was added to each well, and the plates were gently mixed. Then, 25 µL 0.1 M glycine buffer (pH 10.5) (Sigma-Aldrich) was added. The optical density at 570 nm using a multi-mode microplate reader SpectraMax® i3 (Syngen, Taipei City, Taiwan) was recorded. The results were expressed as a percentage of viability compared to untreated cells. All experiments were performed in triplicate. Cytotoxicity assay using human fibroblast Hs27 cells was also performed as described above (included in Supplementary Material).

Hs27 cell line = assay: Cytotoxicity assay (MTT) on human fibroblast Hs27 cells; assay type: cell-based
Protocol: as §1

T. gondii RH strain [3] = tested on: T. gondii RH strain; design: method as in PMID 30744161, PMID 31022878; settings: 50% inhibition of T. gondii proliferation in vitro; reported previously, listed for comparison; cited from earlier work
L929 cells [4] = settings: cited from earlier work
Toxoplasma gondii = Toxoplasma gondii proliferation; cited from earlier work
Tyr from mushrooms [5] = molecular target: T1, Tyr from mushrooms (Agaricus bisporus, UniProt C7FF04); assay: Inhibition of tyrosinase activity assay (screening at 25 µM); assay type: biochemical, mushroom; settings: for Tyrosinase inhibition: at 25 µM compound, L-tyrosine substrate, 10 U Tyr, 30 min; for inhibition at 25 µM: read-out: Tyrosinase inhibition, at 25 µM compound, L-tyrosine substrate, 10 U Tyr, 30 min
Protocol: In our study, we used Tyr from mushrooms (T3824, Sigma) for all experiments. All compound dilutions, L-tyrosine a Tyr substrate, and Tyr were prepared in 50 mM phosphate buffer (pH 6.5). […] 100% Tyr activity we used for the sample without addition compound/inhibitor. […] The average results from three experiments are shown.

[6] = tested on: T. gondii tachyzoites RH-GFP strain; assay: Influence of compounds during Toxoplasma growth, assay B (compounds present 24 h after penetration); assay type: cell-based, Toxoplasma gondii; settings: 3 h infection without compound, then compound at IC50Tg for 24 h, Hs27 cells, vs untreated cells
[7] = tested on: T. gondii tachyzoites RH-GFP strain; assay: Influence of compounds during Toxoplasma growth, assay A (compounds present only during penetration); assay type: cell-based, Toxoplasma gondii; settings: compound at IC50Tg for 3 h during penetration, then 24 h free medium, Hs27 cells, vs untreated cells
Tyr from mushrooms [8] = molecular target: T1, Tyr from mushrooms; assay: Kinetic analysis of the inhibition of tyrosinase (Lineweaver-Burk, Dixon, [L-tyrosine]/V vs [I] plots); assay type: biochemical, mushroom; settings: for Ki: Dixon plots; for character of inhibition: Lineweaver–Burk plots; for IC50: plots of [L-tyrosine]/V vs [I]
Protocol: Therefore, these compounds were subsequently subjected to detailed kinetic studies to evaluate inhibition parameters. […] Dixon plots (Figure 7) were used in evaluating the KI values, while the plots of [L-tyrosine]/V vs. [I] (Figure 8), were employed to determine IC50Tyr[50]. [I] represents the concentration of the inhibitor. Rates were monitored spectrophotometrically by detecting changes in absorbance at 492 nm.
Solutions containing 80 µL of 0.625, 1.25, or 2.5 mM L-tyrosine and 50 µL of 20, 100, or 200 µM inhibitor were added to a 96-well plate. Then, solution containing 70 µL of Tyr (10 U) was added and the initial rate of dopachrome formation was determined through detecting the increase in absorbance at the wavelength of 492 nm (Δ492/min). […] In order to determine the inhibition constants KI the Dixon plots were constructed, whereas the plots of [L-tyrosine]/V vs. inhibitor concentration [I] were used for IC50Tyr evaluation. The results from three experiments are shown.

T1 sequence (G1K3P4 entry or part of it): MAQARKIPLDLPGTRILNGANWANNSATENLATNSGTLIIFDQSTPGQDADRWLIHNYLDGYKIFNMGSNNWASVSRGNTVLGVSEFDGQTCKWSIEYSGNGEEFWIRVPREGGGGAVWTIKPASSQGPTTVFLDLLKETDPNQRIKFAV
T1 sequence (C7FF04 1-392): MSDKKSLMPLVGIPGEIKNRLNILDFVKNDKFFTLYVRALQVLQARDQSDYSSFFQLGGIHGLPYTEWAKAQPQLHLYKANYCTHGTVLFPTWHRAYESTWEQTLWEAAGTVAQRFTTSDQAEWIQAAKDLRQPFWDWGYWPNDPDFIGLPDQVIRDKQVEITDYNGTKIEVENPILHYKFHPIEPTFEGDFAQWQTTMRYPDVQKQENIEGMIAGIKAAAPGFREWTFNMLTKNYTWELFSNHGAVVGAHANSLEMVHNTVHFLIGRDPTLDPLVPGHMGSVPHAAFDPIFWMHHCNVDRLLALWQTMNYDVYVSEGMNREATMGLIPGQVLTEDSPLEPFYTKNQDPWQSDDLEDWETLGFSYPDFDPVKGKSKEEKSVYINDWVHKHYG

| Compound | IC50 (T. gondii RH strain [1]) [µM] | SR (selectivity ratio) (T. gondii RH strain [1]) | melting point [°C] | CC30 (L929 cells [2]) | CC30 (Hs27 cell line; Hs27 cell line, MTT) [µM] | IC50 (T. gondii RH strain [3]) [µM] | CC30 (L929 cells [4]) [µM] | CC30 (Hs27 cell line) [µM] | also measured |
| --- | --- | --- | --- | --- | --- | --- | --- | --- | --- |
| O=C(NNC(=S)Nc1cc(F)ccc1F)C1CCCC1 [Compound 9b, 1-Cyclopentanoyl-4–(2,5-difluorophenyl)thiosemicarbazide] | 321 | 2.68 | 178 to 180 | 860.66 µM | > 1000 | – | – | – | – |
| Cc1nc[nH]c1C(=O)NNC(=S)Nc1ccccc1I [Compound 5a] | – | – | – | – | – | 50.6 | 253.17 | 278.72 | – |
| Cc1nc[nH]c1C(=O)NNC(=S)Nc1ccccc1Cl [Compound 3a] | – | – | – | – | – | 115 | 462.12 | 502.21 | – |
| Cc1nc[nH]c1C(=O)NNC(=S)Nc1cccc([N+](=O)[O-])c1 [Compound 1a] | – | – | – | – | – | 46.1 | 440.95 | 479.22 | – |
| Nc1ccc(S(=O)(=O)Nc2ncccn2)cc1 [sulfadiazine] | – | – | – | – | – | – | – | – | IC50 (Toxoplasma gondii): ~8500 µM |
| CCc1nc(N)nc(N)c1-c1ccc(Cl)cc1 [Pyrimethamine (PYR), Pyrimethamine, reference compound] | 11.5 | 15.85 | – | 181.97 µM | – | – | – | – | – |
| Cc1nc[nH]c1C(=O)NNC(=S)Nc1cccc(I)c1 [Compound 6a] | – | – | – | – | – | 25.7 | – | 209.45 | Tyrosinase inhibition (Tyr from mushrooms [5]): 48.9 ± 3.0%; number of tachyzoites per PV [6]: significant reduction; percentage of infected cells [6]: not observable; number of infected cells (infection index) [7]: significant reduction; number of tachyzoites per PV [7]: significant reduction; Ki (Tyr from mushrooms [8]): 12.4 µM; character of inhibition (Tyr from mushrooms [8]): mixed character of inhibition; IC50 (Tyr from mushrooms [8]): 37.4 µM |
| O=c1cc(CO)occ1O [Kojic acid (KA), Kojic acid, reference compound] | 501 | – | – | 1558.28 µM | > 2500 | – | – | – | CC30 (L929 cells [2]; listed as KA): 1558.0 µM; number of tachyzoites per PV [6]: significant reduction; percentage of infected cells [6]: not observable; number of tachyzoites per PV [7]: significant reduction |
| O=C(NNC(=S)Nc1ccc([N+](=O)[O-])cc1)C1CCCC1 [Compound 2b, 1-Cyclopentanoyl-4–(4-nitrophenyl)thiosemicarbazide] | 144 | 2.63 | 170 to 172 | 378.39 µM and 378.4 µM | 405.09 | – | – | – | inhibition at 25 µM (Tyr from mushrooms [5]): 45.6 ± 2.8%; number of tachyzoites per PV [6]: significant reduction; percentage of infected cells [6]: not observable; number of infected cells (infection index) [7]: significant reduction; number of tachyzoites per PV [7]: significant reduction; character of inhibition (Tyr from mushrooms [8]): mixed character of inhibition |
| Cc1ccc(NC(=S)NNC(=O)c2[nH]cnc2C)cc1 [Compound 8a] | – | – | – | – | – | 199 | 361.73 | 421.89 | – |
| Cc1nc[nH]c1C(=O)NNC(=S)Nc1ccccc1Br [Compound 4a] | – | – | – | – | – | 78.1 | 579.61 | 728.41 | – |
| O=C(NNC(=S)Nc1cccc([N+](=O)[O-])c1)C1CCCC1 [Compound 1b, 1-Cyclopentanoyl-4–(3-nitrophenyl)thiosemicarbazide] | 180 | 3.43 | 134 to 136 | 616.52 µM | 603.98 | – | – | – | – |
| O=C(NNC(=S)Nc1ccccc1I)C1CCCC1 [Compound 5b, 1-Cyclopentanoyl-4–(2-iodophenyl)thiosemicarbazide] | 128 | 2.60 | 182 to 184 | 333.25 µM | 369.69 | – | – | – | – |
| O=C(NNC(=S)Nc1cccc(I)c1)C1CCCC1 [Compound 6b, 1-Cyclopentanoyl-4–(3-iodophenyl)thiosemicarbazide] | 54.5 | 2.16 | 173 to 175 | 117.68 µM | 135.87 | – | – | – | inhibition at 25 µM (Tyr from mushrooms [5]): 43.9 ± 3.4%; number of tachyzoites per PV [6]: significant reduction; percentage of infected cells [6]: not observable; number of infected cells (infection index) [7]: significant reduction; number of tachyzoites per PV [7]: significant reduction; character of inhibition (Tyr from mushrooms [8]): mixed character of inhibition |
| Cc1nc[nH]c1C(=O)NNC(=S)Nc1ccc([N+](=O)[O-])cc1 [Compound 2a] | – | – | – | – | – | 67.5 | – | 697.67 | Tyrosinase inhibition (Tyr from mushrooms [5]): 46.4 ± 3.6%; number of tachyzoites per PV [6]: significant reduction; percentage of infected cells [6]: not observable; number of infected cells (infection index) [7]: significant reduction; number of tachyzoites per PV [7]: significant reduction; Ki (Tyr from mushrooms [8]): 9.35 µM; character of inhibition (Tyr from mushrooms [8]): mixed character of inhibition; IC50 (Tyr from mushrooms [8]): 38.3 µM |
| Cc1nc[nH]c1C(=O)NNC(=S)Nc1cc(F)ccc1F [Compound 9a] | – | – | – | – | – | 172 | 509.11 | 612.48 | – |
| COc1ccccc1NC(=S)NNC(=O)C1CCCC1 [Compound 7b, 1-Cyclopentanoyl-4–(2-methoxyphenyl)thiosemicarbazide] | 327 | 2.71 | 176 to 178 | 886.29 µM | > 1000 | – | – | – | – |
| O=C(NNC(=S)Nc1ccccc1Br)C1CCCC1 [Compound 4b, 4–(2-Bromophenyl)-1-cyclopentanoylthiosemicarbazide] | 218 | 3.70 | 179 to 181 | 806.60 µM | > 1000 | – | – | – | – |
| O=C(NNC(=S)Nc1ccccc1Cl)C1CCCC1 [Compound 3b, 4–(2-Chlorophenyl)-1-cyclopentanoylthiosemicarbazide] | 368 | 1.51 | 178 to 180 | 554.73 µM | 512.31 | – | – | – | – |
| Cc1ccc(NC(=S)NNC(=O)C2CCCC2)cc1 [Compound 8b, 1-Cyclopentanoyl-4–(4-methylphenyl)thiosemicarbazide] | 181 | 2.55 | 175 to 177 | 463.37 µM | 445.10 | – | – | – | – |
| COc1ccccc1NC(=S)NNC(=O)c1[nH]cnc1C [Compound 7a] | – | – | – | – | – | 108 | 452.06 | 498.12 | – |
